Assay results: patent US10912780B2, “Heterocyclic compounds useful as anti-bacterial agents and method for production thereof” (Bugworks Research, Inc., priority 2017, dated 2021)
In brackets after ≈: the same amount, converted by molar mass. Several values for one entry are separate records, joined by “and”; a condition that tells them apart may be missing. Identical values can stand only once.

What was measured:
[1] = system: Enterococcus faecalis ATCC 29212; assay: Minimum Inhibitory Concentration (MIC) in LB media; format: cell-based; details: Enterococcus faecalis, ATCC29212, read-out: Minimum Inhibitory Concentration E. faecalis ATCC 29212
Source text: (§1) The compounds of Formula (I) are of interest due to their potent antibacterial effects. The ability of the invention compounds disclosed herein to achieve an antibacterial effect may be evaluated with regard to their ability to inhibit the growth of bacterial species like Escherichia coli ATCC 25922, Staphylococcus aureus ATCC 29213, Klebsiella pneumoniae ATCC 13883, Acinetobacter baumannii ATCC 19606, Pseudomonas aeruginosa ATCC 27853, Enterococcus faecalis ATCC 29212 and Enterococcus faecalis ATCC 29212 using an assay based on the following Minimum Inhibitory Concentration (MIC) protocol:
(§2) The medium sterility is checked by incubating at 37° C. for a period of 48 h.
(§3) Bacterial cultures that are stored as glycerol stocks at −80° C. are sub cultured on LB agar plates to obtain isolated colonies. A single colony of each strain is cultured in LB broth. The cultures are incubated at 37 C, 200 rpm till they reach an optical density (OD at 600 nm) of 0.8 to 1. […] Test compounds are dissolved in dimethyl sulfoxide (DMSO) to a stock concentration of 4 mg/ml. A twofold dilution series of this DMSO stock is prepared in a 96 well V bottom microtitre plate from rows A to H. A 3 μL volume of these dilutions are transferred to a 96-well flat bottom microtitre assay plate. Controls to monitor the effects of DMSO and media sterility are included. Each well is inoculated with 150 μL of the above diluted culture. The plates are incubated at 37° C. overnight in a humidified incubator. The following morning, the plates are read using a Spectrophotometer at 600 nm wavelength. […] The antibacterial activity (MIC) determined against representative Gram positive (S. aureus, E. faecalis) and Gram negative (E.coli, -P. aeruginosa and A. baumannii) pathogen were reported Table 1.

[2] = system: Klebsiella pneumoniae ATCC 13883; assay: Minimum Inhibitory Concentration (MIC) in LB media; format: cell-based; details: Klebsiella pneumoniae, ATCC13883, read-out: Minimum Inhibitory Concentration K. pneumoniae ATCC 13883
Source text: as §1, §2, §3

[3] = system: Escherichia coli ATCC 25922; assay: Minimum Inhibitory Concentration (MIC) in LB media; format: cell-based; details: Escherichia coli, ATCC25922, read-out: Minimum Inhibitory Concentration E. coli ATCC 25922
Source text: as §1, §2, §3

[4] = system: Staphylococcus aureus ATCC 29213; assay: Minimum Inhibitory Concentration (MIC) in LB media; format: cell-based; details: Staphylococcus aureus, ATCC29213, read-out: Minimum Inhibitory Concentration S. aureus ATCC 29213
Source text: as §1, §2, §3

[5] = system: Pseudomonas aeruginosa ATCC 27853; assay: Minimum Inhibitory Concentration (MIC) in LB media; format: cell-based; details: Pseudomonas aeruginosa, ATCC27853, read-out: Minimum Inhibitory Concentration P. aeruginosa ATCC 27853
Source text: as §1, §2, §3

[6] = target: T1, human ether a go-go related gene (hERG) K+ channel (Homo sapiens, UniProt Q12809); assay: hERG inhibition assay, QPatch HTX automated electrophysiology; format: cell-based; details: CHO cell line stably expressing hERG, whole-cell patch clamp, maximum test concentration 300 μM
T1 construct: Chinese Hamster Ovary cell line stably expressing the full-length hERG potassium channel; expressed in transfected cells
T1 sequence (Q12809 whole entry): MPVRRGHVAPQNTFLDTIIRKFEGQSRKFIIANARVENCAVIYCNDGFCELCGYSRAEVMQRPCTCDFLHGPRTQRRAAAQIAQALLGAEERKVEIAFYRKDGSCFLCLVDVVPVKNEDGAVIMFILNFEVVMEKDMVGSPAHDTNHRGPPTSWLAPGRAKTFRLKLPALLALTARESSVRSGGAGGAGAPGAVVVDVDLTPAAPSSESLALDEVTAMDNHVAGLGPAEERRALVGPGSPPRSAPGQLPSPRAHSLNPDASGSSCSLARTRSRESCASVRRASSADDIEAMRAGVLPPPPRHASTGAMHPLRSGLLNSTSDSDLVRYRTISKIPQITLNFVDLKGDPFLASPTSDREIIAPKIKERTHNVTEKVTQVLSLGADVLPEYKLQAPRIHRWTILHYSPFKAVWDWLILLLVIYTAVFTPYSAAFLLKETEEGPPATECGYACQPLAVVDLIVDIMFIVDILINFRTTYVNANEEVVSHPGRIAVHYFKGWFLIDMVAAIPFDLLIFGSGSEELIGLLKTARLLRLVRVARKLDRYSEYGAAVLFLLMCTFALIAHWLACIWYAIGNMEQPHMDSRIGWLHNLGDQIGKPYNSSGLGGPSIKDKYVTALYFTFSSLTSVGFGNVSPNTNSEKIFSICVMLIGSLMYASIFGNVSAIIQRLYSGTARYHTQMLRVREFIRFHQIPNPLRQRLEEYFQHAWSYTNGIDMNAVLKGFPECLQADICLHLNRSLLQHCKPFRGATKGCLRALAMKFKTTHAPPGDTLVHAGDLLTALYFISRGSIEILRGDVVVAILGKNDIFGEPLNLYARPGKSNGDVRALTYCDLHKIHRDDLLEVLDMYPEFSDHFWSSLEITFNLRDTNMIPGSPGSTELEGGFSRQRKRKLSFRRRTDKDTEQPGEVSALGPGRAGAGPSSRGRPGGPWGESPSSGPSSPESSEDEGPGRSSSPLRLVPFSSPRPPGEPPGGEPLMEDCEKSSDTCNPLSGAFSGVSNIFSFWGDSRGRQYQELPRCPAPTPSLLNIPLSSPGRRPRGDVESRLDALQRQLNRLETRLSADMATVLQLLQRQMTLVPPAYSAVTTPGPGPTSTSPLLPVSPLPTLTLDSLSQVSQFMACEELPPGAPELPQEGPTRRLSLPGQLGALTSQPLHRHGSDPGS
Procedure: The compounds were tested for inhibition of the human ether a go-go related gene (hERG) K+ channel using QPatch HTX automated electrophysiology.
Compounds were solubilised to 100 mM in DMSO before dilution in HBPS to 300 μM.
Electrophysiological recordings were made from a Chinese Hamster Ovary cell line stably expressing the full-length hERG potassium channel. Single cell ionic currents were measured in whole-cell patch clamp configuration at room temperature (21-23° C.) using the QPatch HTX platform (Sophion). Intracellular solution contained (mM): 120 KF, 20 KCl, 10 EGTA, 10 HEPES and was buffered to pH 7.3. […] Cells were clamped at a holding potential of −80 mV. […] This sweep was repeated 10 times at 10 s intervals. hERG currents were measured from the tail step and referenced to the holding current. Compounds were then incubated for 2 minutes prior to a second measurement of ion channel current using an identical pulse train.

[7] = system: Acinetobacter baumannii ATCC 19606; assay: Minimum Inhibitory Concentration (MIC) in LB media; format: cell-based; details: Acinetobacter baumannii, ATCC19606;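 also: twofold compound dilutions from DMSO stocks in LB broth microplates, overnight incubation at 37 °C, growth read by absorbance at 600 nm, with DMSO and sterility controls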
Procedure: Bacterial cultures that are stored as glycerol stocks at −80° C. are sub cultured on LB agar plates to obtain isolated colonies. A single colony of each strain is cultured in LB broth. […] Test compounds are dissolved in dimethyl sulfoxide (DMSO) to a stock concentration of 4 mg/ml. A twofold dilution series of this DMSO stock is prepared in a 96 well V bottom microtitre plate from rows A to H. A 3 μL volume of these dilutions are transferred to a 96-well flat bottom microtitre assay plate. Controls to monitor the effects of DMSO and media sterility are included. Each well is inoculated with 150 μL of the above diluted culture. The plates are incubated at 37° C. overnight in a humidified incubator. The following morning, the plates are read using a Spectrophotometer at 600 nm wavelength.

E. coli DNA gyrase = E. coli DNA gyrase (Escherichia coli, UniProt P0AES4+P0AES6); assay: biochemical; details: supercoiling assay
Chain of E. coli DNA gyrase (P0AES4 whole entry, one chain of several): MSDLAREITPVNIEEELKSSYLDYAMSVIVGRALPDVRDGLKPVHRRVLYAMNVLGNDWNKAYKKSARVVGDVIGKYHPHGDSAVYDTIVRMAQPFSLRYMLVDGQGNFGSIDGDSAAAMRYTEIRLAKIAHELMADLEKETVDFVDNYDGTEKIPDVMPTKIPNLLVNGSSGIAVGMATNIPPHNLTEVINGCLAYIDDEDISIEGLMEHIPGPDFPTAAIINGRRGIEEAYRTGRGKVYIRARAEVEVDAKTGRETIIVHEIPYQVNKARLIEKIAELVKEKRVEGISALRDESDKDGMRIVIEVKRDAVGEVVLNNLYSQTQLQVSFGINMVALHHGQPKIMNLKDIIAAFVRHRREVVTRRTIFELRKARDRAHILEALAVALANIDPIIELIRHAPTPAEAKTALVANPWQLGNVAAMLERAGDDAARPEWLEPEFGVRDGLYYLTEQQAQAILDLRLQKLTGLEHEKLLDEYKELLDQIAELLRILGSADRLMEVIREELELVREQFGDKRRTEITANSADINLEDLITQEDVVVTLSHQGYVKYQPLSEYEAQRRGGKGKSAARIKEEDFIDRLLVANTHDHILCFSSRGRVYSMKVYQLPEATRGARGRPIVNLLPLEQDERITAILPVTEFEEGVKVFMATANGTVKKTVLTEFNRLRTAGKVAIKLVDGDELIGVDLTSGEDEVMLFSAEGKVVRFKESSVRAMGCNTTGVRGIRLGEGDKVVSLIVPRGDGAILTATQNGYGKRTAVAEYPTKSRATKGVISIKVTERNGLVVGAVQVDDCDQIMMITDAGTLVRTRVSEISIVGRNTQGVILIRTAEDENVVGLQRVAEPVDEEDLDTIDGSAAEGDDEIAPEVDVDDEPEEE

E. coli topoisomerase IV = E. coli topoisomerase IV (Escherichia coli, UniProt P0AFI2+P20083); assay: biochemical; details: decatenation assay; read-out: E. coli Topo IV IC50
Chain of E. coli topoisomerase IV (P20083 whole entry): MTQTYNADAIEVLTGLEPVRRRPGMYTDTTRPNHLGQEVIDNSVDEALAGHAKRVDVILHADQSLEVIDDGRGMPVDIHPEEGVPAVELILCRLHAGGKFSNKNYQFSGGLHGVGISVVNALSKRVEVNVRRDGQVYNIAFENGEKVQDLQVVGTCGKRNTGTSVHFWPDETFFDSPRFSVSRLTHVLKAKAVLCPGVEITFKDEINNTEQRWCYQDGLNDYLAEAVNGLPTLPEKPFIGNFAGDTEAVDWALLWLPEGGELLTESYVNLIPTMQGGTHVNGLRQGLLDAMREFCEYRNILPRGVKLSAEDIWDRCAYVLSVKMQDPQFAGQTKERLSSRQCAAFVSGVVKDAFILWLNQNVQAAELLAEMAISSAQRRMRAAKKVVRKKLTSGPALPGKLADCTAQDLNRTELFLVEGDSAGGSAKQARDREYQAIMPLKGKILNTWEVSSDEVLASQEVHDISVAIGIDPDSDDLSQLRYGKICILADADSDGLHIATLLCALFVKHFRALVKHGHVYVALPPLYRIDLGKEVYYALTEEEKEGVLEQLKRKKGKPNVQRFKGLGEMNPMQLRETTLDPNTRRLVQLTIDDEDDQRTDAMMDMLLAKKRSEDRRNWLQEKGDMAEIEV
Chain of E. coli topoisomerase IV (P0AFI2 whole entry): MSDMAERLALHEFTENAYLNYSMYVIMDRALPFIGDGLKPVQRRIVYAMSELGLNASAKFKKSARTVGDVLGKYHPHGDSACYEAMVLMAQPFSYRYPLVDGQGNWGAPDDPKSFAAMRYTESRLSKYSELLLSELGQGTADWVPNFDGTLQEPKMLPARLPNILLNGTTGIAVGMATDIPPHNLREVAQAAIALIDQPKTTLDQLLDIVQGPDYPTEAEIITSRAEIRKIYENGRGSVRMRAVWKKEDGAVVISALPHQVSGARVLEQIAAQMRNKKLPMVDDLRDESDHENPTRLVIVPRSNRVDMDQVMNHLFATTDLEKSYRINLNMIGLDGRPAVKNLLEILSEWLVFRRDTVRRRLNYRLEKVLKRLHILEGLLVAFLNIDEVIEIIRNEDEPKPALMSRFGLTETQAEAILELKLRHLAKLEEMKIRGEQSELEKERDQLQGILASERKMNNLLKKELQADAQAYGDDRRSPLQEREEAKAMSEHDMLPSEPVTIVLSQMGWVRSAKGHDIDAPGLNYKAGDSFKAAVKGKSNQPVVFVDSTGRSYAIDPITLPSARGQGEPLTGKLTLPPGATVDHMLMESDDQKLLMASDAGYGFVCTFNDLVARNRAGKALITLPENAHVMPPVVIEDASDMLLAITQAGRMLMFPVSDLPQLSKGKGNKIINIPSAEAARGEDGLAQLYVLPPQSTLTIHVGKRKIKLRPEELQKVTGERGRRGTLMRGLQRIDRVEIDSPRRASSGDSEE

[8] = system: K. pneumoniae [ATCC13883]; assay: Neutropenic thigh infection model in rat; format: in vivo; details: 10 mg/kg, i.v. bolus, neutropenic rat

Row | SMILES | MIC [1] [µg/mL] | MIC [2] [µg/mL] | MIC [3] [µg/mL] | MIC [4] [µg/mL] | MIC [5] [µg/mL] | IC50 [6] [nM] | MIC [7] [µg/mL] | IC50 (E. coli DNA gyrase) [nM] | IC50 (E. coli topoisomerase IV) [nM] | MEAN ± SD (Log 10 CFU/g thigh) ([8]; 10 hr post infection) | Mean Log10CFU/g thigh reduction (wrt 2 h PI control: 4.72 Log10CFU/g thigh) ([8]; 10 hr post infection) [Log10CFU/g thigh] | Log 10 CFU/g thigh ([8]; individual animals, thigh harvested 10 hr post infection)
1 | O=C1COc2ncc(N3C[C@H](CNCCc4c(F)ccc5ccc(=O)n(CCO)c45)OC3=O)nc2N1 [Example 20, (S)-6-(5-(((2-(7-fluoro-1-(2-hydroxyethyl)-2-oxo-1,2-dihydroquinolin-8-yl)ethyl)amino)methyl)-2-oxooxazolidin-3-yl)-2H-pyrazino[2,3-b][1,4]oxazin-3(4H)-one] | 0.125 (≈ 0.251 µM) | 0.5 (≈ 1 µM) | 0.125 (≈ 0.251 µM) | 0.03 (≈ 0.0602 µM) | 0.5 (≈ 1 µM) | > 300000 | 2 (≈ 4.01 µM) | 10.6 | 90 | – | – | –
2 | O=C(O)c1cn(C2CC2)c2cc(N3CCNCC3)c(F)cc2c1=O [Ciprofloxacin, reference compound] | 0.4 (≈ 1.21 µM) | 0.05 (≈ 0.151 µM) | 0.012 (≈ 0.0362 µM) | 0.4 (≈ 1.21 µM) | 0.1 (≈ 0.302 µM) | – | – | – | – | 3.28 ± 0.19 | 1.44 | 3.49 Log 10 CFU/g thigh and 3.11 Log 10 CFU/g thigh and 3.25 Log 10 CFU/g thigh
3 | Cn1c(=O)cc(CN)c2ccc(F)c(CCNC[C@H]3CN(c4ccc5c(n4)NC(=O)CO5)C(=O)O3)c21 [Example 13, (S)-6-(5-(((2-(4-(aminomethyl)-7-fluoro-1-methyl-2-oxo-1,2-dihydroquinolin-8-yl)ethyl)amino)methyl)-2-oxooxazolidin-3-yl)-2H-pyrido[3,2-b][1,4]oxazin-3(4H)-one] | 0.5 (≈ 1.01 µM) | 0.25 (≈ 0.504 µM) | 0.125 (≈ 0.252 µM) | 0.25 (≈ 0.504 µM) | 0.5 (≈ 1.01 µM) | > 300000 | 1 (≈ 2.01 µM) | 20 | 32 | – | – | –
4 | Cn1c(=O)ccc2ccc(F)c(CCNC[C@@H]3CN(c4cnc5c(n4)NC(=O)CO5)C(=O)O3)c21 [Example 14, (R)-6-(5-(((2-(7-fluoro-1-methyl-2-oxo-1,2-dihydroquinolin-8-yl)ethyl)amino)methyl)-2-oxooxazolidin-3-yl)-2H-pyrazino[2,3-b][1,4]oxazin-3(4H)-one] | 0.06 (≈ 0.128 µM) | 0.06 (≈ 0.128 µM) | 0.06 (≈ 0.128 µM) | ≤ 0.015 | 0.5 (≈ 1.07 µM) | 41000 | 0.25 (≈ 0.534 µM) | 13 | 52 | – | – | –
5 | Cn1c(=O)ccc2ccc(F)c(CCCNC[C@H]3CN(c4cnc5c(n4)NC(=O)CO5)C(=O)O3)c21 [Example 22, (S)-6-(5-(((3-(7-fluoro-1-methyl-2-oxo-1,2-dihydroquinolin-8-yl)propyl)amino)methyl)-2-oxooxazolidin-3-yl)-2H-pyrazino[2,3-b][1,4]oxazin-3(4H)-one] | 0.06 (≈ 0.124 µM) | 0.06 (≈ 0.124 µM) | 0.03 (≈ 0.0622 µM) | ≤ 0.015 | 0.25 (≈ 0.518 µM) | 128000 | 0.015 (≈ 0.0311 µM) | 3.2 | 19 | – | – | –
6 | Cn1c(=O)ccc2ccc(F)c(CCNCC[C@@H]3CN(c4cnc5c(n4)NC(=O)CO5)C(=O)O3)c21 (single isomer, unassigned) [Example 25] | 0.5 (≈ 1.04 µM) | 0.25 (≈ 0.518 µM) | 0.06 (≈ 0.124 µM) | 0.06 (≈ 0.124 µM) | 0.25 (≈ 0.518 µM) | 101000 | 0.5 (≈ 1.04 µM) | 17 | 21 | – | – | –
7 | Cn1c(=O)ccc2ccc(F)c(C[C@H](O)CNC[C@H]3CN(c4ccc5c(n4)NC(=O)CO5)C(=O)O3)c21 (single isomer, unassigned) [Example 18] | 0.5 (≈ 1.01 µM) | 0.125 (≈ 0.251 µM) | 0.125 (≈ 0.251 µM) | 0.125 (≈ 0.251 µM) | 1 (≈ 2.01 µM) | 237000 | 0.5 (≈ 1.01 µM) | 13 | 24 | – | – | –
8 | O=C1COc2ccc(N3C[C@H](CNCCc4c(F)ccc5ccc(=O)n(CCO)c45)OC3=O)nc2N1 [Example 10, (S)-6-(5-(((2-(7-fluoro-1-(2-hydroxyethyl)-2-oxo-1,2-dihydroquinolin-8-yl)ethyl)amino)methyl)-2-oxooxazolidin-3-yl)-2H-pyrido[3,2-b][1,4]oxazin-3(4H)-one] | 0.06 (≈ 0.121 µM) | 0.06 (≈ 0.121 µM) | 0.03 (≈ 0.0603 µM) | 0.015 (≈ 0.0302 µM) | 0.5 (≈ 1.01 µM) | 71000 | 0.125 (≈ 0.251 µM) | 5.9 | 30 | – | – | –
9 | Cn1c(=O)ccc2ccc(F)c(CCNCC[C@H]3CN(c4cnc5c(n4)NC(=O)CO5)C(=O)O3)c21 (single isomer, unassigned) [Example 24] | 0.125 (≈ 0.259 µM) | 0.125 (≈ 0.259 µM) | 0.06 (≈ 0.124 µM) | 0.125 (≈ 0.259 µM) | 0.25 (≈ 0.518 µM) | > 300000 | 0.5 (≈ 1.04 µM) | 25 | 123 | – | – | –
